Marks after values point to notes of the source that are not given here.
Key:
Type in all cases: in vivo, rat
IL-1β = test: Inflammatory marker IL-1β (ELISA), AlCl3 Alzheimer's model; details: for IL-1β: p.o. + AlCl3 (100 mg/kg, i.p.), n = 6
Text: (§1) The inflammatory markers Fibrinogen, IL-1β were estimated using ELISA kit (Krishgen Biosystems, India).

Fibrinogen = test: Inflammatory marker fibrinogen (ELISA), AlCl3 Alzheimer's model; details: for Fibrinogen: p.o. + AlCl3 (100 mg/kg, i.p.), Mean ± SEM, n = 6
Text: as §1

Aquaporin-4 (AQP4) = test: AQP4 expression in brain homogenate (ELISA), AlCl3 Alzheimer's model; details: 5, 10 and 20 mg/kg, FIG. 1
Text: Aquaporin-4 (AQP4) is a channel protein that plays a fundamental role in glymphatic system, a pathway for fluid exchange in the central nervous system, as well as a central figure in the pathophysiology of neurodegenerative diseases such as Alzheimer's disease (AD) and frontotemporal dementia. It plays an important role in maintaining cerebral fluid homeostasis by acting as a water channel protein. The AQP4 not only enables water permeability through the blood-brain barrier and also regulates water exchange between perivascular spaces and the rest of the glymphatic system (Szczygielski et al., Cerebral Microcirculation, Perivascular Unit, and Glymphatic System: Role of Aquaporin-4 as the Gatekeeper for Water Homeostasis, Front. Neurol. 12:767470, doi: 10.3389/fneur.2021.767470). Further, Astrocytes are known to maintain extracellular potassium concentrations in the brain by a process termed “potassium siphoning”. Changes in potassium channel function alters brain homeostasis leading to brain impairment. Water movement via the AQP4 water channel localized to astrocyte end-feet maintains osmotic balance and promotes effective potassium siphoning (Verkman A S, Aquaporins in Clinical Medicine, Annu. Rev. Med. 2012. 63:303-16). […] In the present study, the levels were determined using ELISA kit (Biogenuix Medsystems Pvt. Ltd.).

Alzheimer's disease = test: Novel object recognition (NOR) test in rats with AlCl3-induced Alzheimer's disease; details: for % Recognition Index: p.o. + AlCl3 (100 mg/kg, i.p.), NOR at 15th day, Mean ± SEM, n = 6
Experimental: Novel object recognition (NOR)—Novel object recognition (NOR)—This test was performed as per reported protocol (Antunes M, Biala G. The novel object recognition memory: neurobiology, test procedure, and its modifications. Cognit. Process. 2012:13, 93-110). During the retrieval phase, the animal was allowed to explore the field for 10 min. The hippocampal functions were assessed through the recognition indices, which were measured according to the time spent by the animals to explore the familiar and new objects.
The test is a relatively fast and efficient means for testing learning and memory in an animal model. The test relies on only three sessions: one habituation session, one training session, and one test session and relies on rodents' natural proclivity for exploring novelty. This is a relatively low-stress, efficient test for memory in an animal model, and is appropriate for the detection of neuropsychological changes after the administration of test drugs (Lupetow L, Novel Object Recognition Test for the Investigation of Learning and Memory in Mice, J Vis Exp. 2017; (126): 55718).

Parkinson's disease = test: Catalepsy test in rats with reserpine-induced Parkinson's disease; parameters: catalepsy score at 30 min / catalepsy score at 60 min / catalepsy score at 120 min: unit not given here; details: for catalepsy score at 30 min / catalepsy score at 60 min / catalepsy score at 120 min: p.o. + Reserpine (4 mg/kg, s.c.), Mean ± SEM, n = 6
Text: The induction of Parkinson's disease and measurement of other parameters were done as per the reported protocol (Santos et al., Cognitive, motor and tyrosine hydroxylase temporal impairment in a model of parkinsonism induced by reserpine. Behav Brain Res. 2013; 253:68-77 and Shishehbore et al. A novel kinetic spectrophotometric method for the determination of dopamine in biological and pharmaceutical samples. J Chem. 2013; 2013:1-6). Induction of Parkinson's disease was done by administering Resperine, which inhibits the monoamine vesicular transporters, thus decreasing the levels of monoamine neurotransmitters in the brain. Following pretreatment for 14 days with Gingerenone A, the rat groups received subcutaneous injections of reserpine (4 mg/kg) for the final five days of the treatment regimen. Resperine (5 mg) was dissolved in 1 ml of 1% acetic acid and then diluted tenfold with distilled water to achieve a final concentration of 500 μg/ml. The normal control group received saline with 1% acetic acid […], administered from day 10 to day 14. Thirty minutes following the administration of reserpine on the 14th day, behavioural assessments were conducted using the Open Field test, Y Maze, and Catalepsy tests to evaluate changes. Rats administered with Carbidopa, a known drug for the management of Parkinson's disease was also used for comparison. Upon completion of the study, brains were harvested for biochemical analyses and histopathological studies. The experimental group is depicted in table 10.
NeuroMol Med. 202022(2):314-330. Catalepsy in rats' manifests as an unresponsiveness to external stimuli accompanied by muscle rigidity. During the catalepsy test, rats were positioned on a wooden bar elevated 3-9 cm above the surface, with their forelimbs resting on it after administration of reserpine. The time taken for the rats to correct their posture was recorded as an indicator of catalepsy. Catalepsy ceased either when the rats climbed up the bar or when their forelimbs touched the floor. Observations were made at 30, 60, and 120 minutes after administration. All assessments were conducted in a quiet environment at a temperature of 23-25 degrees Celsius, with a maximum observation time of 5 minutes per trial.

Tau = Tau level in plasma (ELISA), AlCl3 Alzheimer's model; details: 5, 10 and 20 mg/kg, FIG. 2
Text: (§2) The levels of Tau, β-amyloid (1-42) and Apolipoprotein E were estimated. using ELISA kit (Krishgen Biosystems, India). All the protein biomarkers of AD were elevated in the AD control group.

β-amyloid (1-42) = β-amyloid (1-42) level in plasma (ELISA), AlCl3 Alzheimer's model; details: for β-amyloid: p.o. + AlCl3 (100 mg/kg, i.p.), plasma, Mean ± SEM, n = 6
Text: as §2

COc1cc(CC/C=C/C(=O)CCc2ccc(O)c(OC)c2)ccc1O [Gingerenone A]
IL-1β (IL-1β; 5 mg/kg): 97.92 pg/mL | IL-1β (IL-1β; 10 mg/kg): 84.90* pg/ml | IL-1β (IL-1β; 20 mg/kg): 80.65** pg/ml | IL-1β (in words) (IL-1β; AlCl3 model, Table 9): significantly reduced | Fibrinogen (Fibrinogen; 5 mg/kg): 22.80 ± 0.738 ng/mL | Fibrinogen (Fibrinogen; 10 mg/kg): 19.05 ± 0.232 ng/mL | Fibrinogen (Fibrinogen; 20 mg/kg): 16.65 ± 0.431 ng/mL | fibrinogen (in words) (Fibrinogen; AlCl3 model, Table 9): significantly reduced | AQP4 expression (in words) (Aquaporin-4 (AQP4)): increased AQP4 expression | % Recognition Index (Alzheimer's disease; 5 mg/kg): 56.23 ± 2.35% | % Recognition Index (Alzheimer's disease; 10 mg/kg): 65.54 ± 2.78 % | % Recognition Index (Alzheimer's disease; 20 mg/kg): 66.53 ± 3.20 % | recognition index (in words) (Alzheimer's disease; AlCl3 model, Table 2): effectively improved the scores | catalepsy score at 30 min (Parkinson's disease; 5 mg/kg): 2.46 ± 0.15 | catalepsy score at 60 min (Parkinson's disease; 5 mg/kg): 2.52 ± 0.54 | catalepsy score at 120 min (Parkinson's disease; 5 mg/kg): 2.43 ± 0.70 | catalepsy score at 30 min (Parkinson's disease; 10 mg/kg): 1.76 ± 0.11 | catalepsy score at 60 min (Parkinson's disease; 10 mg/kg): 1.72 ± 0.73 | catalepsy score at 120 min (Parkinson's disease; 10 mg/kg): 1.71 ± 0.75 | catalepsy score at 30 min (Parkinson's disease; 20 mg/kg): 1.58 ± 0.16 | catalepsy score at 60 min (Parkinson's disease; 20 mg/kg): 1.55 ± 0.32 | catalepsy score at 120 min (Parkinson's disease; 20 mg/kg): 1.50 ± 0.82 | muscle rigidity in catalepsy test (in words) (Parkinson's disease; reserpine model, Table 13): significantly improved muscle rigidity | Tau levels in plasma (in words) (Tau): significantly reduced | β-amyloid (β-amyloid (1-42); 5 mg/kg): 10.74 ± 0.035 pg/mL | β-amyloid (β-amyloid (1-42); 10 mg/kg): 8.04 ± 0.023 pg/mL | β-amyloid (β-amyloid (1-42); 20 mg/kg): 7.88 ± 0.065 pg/mL | levels of β-amyloid (in words) (β-amyloid (1-42); AlCl3 model, Table 7): significantly reduced
